US20110236349A1, “Use of Epidermal Growth Factor Inhibitors in the Treatment of Viral Infection” (priority 2008, published 2011)

Experiments:
[1] = tested on: Rhinovirus 16; test: Rhinovirus 16 infection of HeLa cells measured by flow cytometry; type: cell-based, Rhinovirus 16 (major group) in HeLa cells; settings: RV16 MOI 10, 6 h, RV alone 62%, control 1%
Procedure: HeLa is an epithelial cell line that is routinely used to evaluate Rhinovirus infection. HeLa; American Type Culture Collections (ATCC) No. CCL-2. Here, HeLa cell cultures were treated with serum-free medium (Control), or with serum-free medium containing Rhinovirus 16 (major group RV at multiplicity of infection (MOI) 10) with and without a selective EGFR tyrosine kinase inhibitor (AG 1478). After 6 h, cell cultures were collected and stained with a monoclonal antibody that selectively binds to Rhinovirus. Cells were processed for flow cytometry and Rhinovirus infection in HeLa cells was measured. The data, shown in FIG. 2, are expressed as percent infected cells. Control (no RV): 1%; RV: 62%; RV+AG1478 (5 μM): 13%; and RV+AG1478 (10 μM): 9%. […] No effect with a platelet derived growth factor (PDGF) inhibitor (another tyrosine kinase inhibitor) was observed.

[2] = tested on: Rhinovirus 16; test: Rhinovirus 16 infection of NCI-H292 airway epithelial cells, quantified by viral plaque assay on HeLa cells; type: cell-based, Rhinovirus 16 (major group) in human NCI-H292 cells; settings: AG 1478 10 μM; RV16 MOI 10; NCI-H292 cell lysates; n=2
Procedure: The effect of an EGF-R inhibitor on rhinovirus infectivity was assayed. First, human airway epithelial (NCI-H292 American Type Culture Collection Catalog No. CRL-1848) cells were treated with Rhinovirus 16 (major group Rhinovirus (RV) at multiplicity of infection (MOI) 10) or RV16 plus a selective EGFR tyrosine kinase inhibitor (AG 1478) at 10 μM. Cell lysates from these NCI-H292 cell cultures were collected at […]. To quantitate Rhinovirus infection in airway epithelial cells, cell lysates were analyzed by viral plaque assay, a technique that is commonly utilized to measure viral infection. Next, serial dilutions of NCI-H292 cell lysates were placed on HeLa cell cultures for a standard plaque assay. Cell cultures were covered with an agarose overlay. Cultures were incubated for three days. After three days, cell cultures were stained with crystal violet and the number of plaques was counted. […] FIG. 1A. […]
The effect of an antibody specific for EGF-R on Rhinovirus 16 (RV16) infection was also assessed. […]
FIGS. 1A and 1B. Viral quantification of Rhinovirus infection by plaque assay. […] Cell lysates were collected after 24 h and Rhinovirus infection was quantified by plaque assay [(A) n=2±SEM; (B) n=1].

[3] = tested on: respiratory syncytial virus (RSV); test: RSV infection of epithelial HeLa cell cultures, viral quantification by TCID50; type: cell-based
Procedure: To study the effect of a selective EGFR inhibitor on RSV infection, viral quantification by tissue culture-infective dose (TCID50)/100 μL in epithelial HeLa cell cultures treated with or without the selective EGFR tyrosine kinase inhibitor AG 1478 was used. […] FIG. 4A, RSV alone 10^2.5±1 TCID50 vs RSV plus AG 1478 (10 μM) 0 TCID50; n=2. FIG. 4B, RSV alone 10^4.38±0.1 TCID50 vs RSV plus AG 1478 (1 μM) 0 TCID50; n=2.
FIGS. 4A and 4B. Viral quantification by tissue culture-infective dose (TCID50)/100 μL in epithelial cell cultures treated with or without the selective EGFR inhibitor, AG 1478 [(A) AG1478 (10 μM) in TCID50/100 μL at 2 days ±SEM, (n=2 separate experiments); (B) AG 1478 (1 μM) in TCID50/100 μL at 4 days ±SEM, (n=2 separate experiments).
A similar set of experiments was conducted, to test the effect of Gefitinib (Iressa; ZD 1839; N-(3-chloro-4-fluoro-phenyl)-7-methoxy-6-(3-morpholin-4-ylpropoxy)quinazolin-4-amine) on RSV infection. Gefitinib (1 and 10 μM) suppressed RSV virus infection. The data are shown in FIG. 5 (RSV alone 10^1.5 TCID50 (first column), RSV plus Gefitinib (1 μM) 0 TCID50 (second column), and RSV plus Gefitinib (10 μM) 0 TCID50 (third column); n=1).
FIG. 5. Viral quantification by tissue culture-infective dose (TCID50)/100 μL at 2 days in epithelial cell cultures treated with or without the selective EGFR inhibitor, Gefitinib. RSV alone (first column), RSV plus Gefitinib (1 μM, second column), and RSV plus Gefitinib (10 μM, third column); n=1.

[4] = tested on: Influenza A/H1N1/PR8; type: cell-based; settings: 10 μM; 24 h; MOI~1; eight fields at 20×; n=4; Influenza alone 316±19 cells; p<0.0001

| Structure (SMILES) | percent infected cells ([1]; 5 μM) | percent infected cells ([1]; 10 μM) | Rhinovirus infection by plaque assay [2] | RSV tissue culture-infective dose (TCID50) ([3]; 1 μM, at 4 days, HeLa, RSV alone 10^4.38±0.1, n=2) | RSV tissue culture-infective dose (TCID50) ([3]; 10 μM, at 2 days, HeLa) | cells staining positive for Influenza [4] | RSV tissue culture-infective dose (TCID50) ([3]; 1 μM, at 2 days, RSV alone 10^1.5, n=1) |
| --- | --- | --- | --- | --- | --- | --- | --- |
| COc1cc2ncnc(Nc3cccc(Cl)c3)c2cc1OC [AG 1478, 4-(3-chlorophenylamino)-6,7-dimethoxyquinazoline] | 13% | 9% | suppress rhinovirus infection | 0 TCID50/100 μL | 0 TCID50/100 μL | 94±49 cells | – |
| COc1cc2ncnc(Nc3ccc(F)c(Cl)c3)c2cc1OCCCN1CCOCC1 [Gefitinib, N-(3-chloro-4-fluoro-phenyl)-7-methoxy-6-(3-morpholin-4-ylpropoxy)quinazolin-4-amine] | – | – | – | – | 0 TCID50/100 μL | – | 0 TCID50/100 μL |
